According to patent US20060116423A1, “Methods and compositions for treatment of central nervous system injury with isothiocyanates” (priority 2004, published 2006):

Legend:
blood-brain barrier = test: Blood-brain barrier integrity by Evan's blue dye extravasation after cortical impact injury; format: in vivo, rat; settings: for blood-brain barrier permeability (Evans Blue extravasation): measured 24 h after TBI, vs vehicle
Description: Blood-brain barrier integrity was assessed using extravagation of Evan's blue (EB) dye. When injected through the jugular vein of normal animals, EB is not detected in the nervous tissue. However, if the blood-brain barrier is compromised, EB can be detected in nervous tissues. The amount of EB can be quantified by extracting the dye from the tissue followed by spectrophotometric analysis at 610 nm wavelength. One and one-half hours prior to the above time points, animals were anesthetized and injected with 3% EB in saline (4 ml/kg) through the jugular vein. Animals were transcardially perfused with phosphate-buffered saline (PBS) until the out-coming liquid was clear followed by 4% paraformaldehyde (400 ml). The brain was removed and 2 mm-thick sections were prepared and incubated with 3 ml of 99.5% formamide in a 60° C. water bath for 24 hr. At the end of the incubation, tissues were removed and the formamide solution was centrifuged in an Eppendorf centrifuge at 12,000 rpm for 20 min. The supernatant solution was collected and the optical density at 610 nm was measured to determine the relative amount of EB dye in each sample.

brain injured rats [1] = test system: brain injured rats
Text: (§1) This model utilizes a pneumatic piston to deform a controllable volume of exposed cortex over a range of impact velocities. All protocols were in compliance with NIH's Guide for the Care and Use of Laboratory Animals and approved by the Institutional Animal Care and Use Committee. A controlled cortical impact device was used to cause brain trauma as previously described^6,7,26. Rats were anesthetized using 5% isoflurane with a 1:1 N2O:O2 mixture. The animals were then maintained with a 2% isoflurane/2:1 N2O:O2 mixture, via a face mask. Animals were mounted in the injury device stereotaxic frame secured by ear bars and an incisor bar. The head was held in a horizontal plane with respect to the interaural line. A midline incision was made, the soft tissues reflected, and bilateral 6 mm craniectomies were made midway between the bregma and lambda with the medial edge of each craniectomy 1 mm lateral to midline. Rats received a single impact at 1.8 mm deformation with an impact velocity of 6 m/sec at an angle of 20° from the vertical plane. Core body temperature was maintained at 37-38° C. by use of a rectal thermometer coupled to a heating pad. Sham rats were anesthetized and received craniectomies but were not cortically impacted. After injury or sham operation, the scalp was sutured and the animal placed in an oxygenated chamber and monitored during recovery. All rats were allowed to completely recover from the anesthesia after the surgery in a warm chamber before being sent back to the home cages. The type of brain trauma employed in this study produces both motor and cognitive deficits similar to those seen in human patients^6.

brain swelling (edema) = settings: P<0.05 vs vehicle
Text: as §1

[2] = test system: focal cerebral ischemia (CCA/MCA occlusion); settings: 5 mg/kg i.p. 15 minutes after onset of ischemia; 3 hours CCA/MCA occlusion; three days following ischemia; vehicle 153.87±11.01 mm^3; P<0.05
Description: Focal ischemia was induced by temporary left common carotid/middle cerebral artery (CCA/MCA) occlusion^1,41. Briefly, rats were anesthetized with chloral hydrate (0.45 g/kg IP). Core body temperature was maintained at 36.5±0.5° C. during ischemia The ipsilateral CCA was isolated and tagged through a ventral, cervical midline incision. A 0.005-inch-diameter stainless steel wire (Small Parts Inc) was placed underneath the left MCA rostral to the rhinal fissure, proximal to the major bifurcation of the MCA, and distal to the lenticulostriate arteries. The artery was then lifted, and the wire was rotated clockwise to ensure occlusion. The CCA was next occluded with an atraumatic aneurysm clip. Cerebral perfusion at the cortical surface, 3 mm distal to the locus of the MCA occlusion, was measured with a laser-Doppler flowmeter (LDF) (model BPM2, Vesamedic). […] After 180 minutes of MCA/CCA occlusion, reperfusion was established by reversing the occlusion procedure. […]
Morphometric determination of infarct volume was obtained with the help of a computer-based image analyzer operated by Brain software (Drexel University). […] The infarct volume (mm^3) was calculated from the difference between the volume of contralateral cortex and the volume of the TTC-stained (nonischemic) portion of ipsilateral cortex of each rat. […]

cortical cultures = settings: pretreatment prior to hydrogen peroxide or glutamate exposure; in vitro; cited from earlier work
AQP4 mRNA = settings: 5 mg/kg i.p.; 24 hr post-administration; cortical tissue; vehicle 100.00±18.16%; mean±S.E.M., n=3; P<0.05
Description: Animals were killed and parietal cortical tissues were quickly dissected out and frozen in dry ice. The frozen tissue was homogenized in 1.5ml of TriZol (Invitrogen) per 100 mg tissue, followed by addition of chloroform (1:5) and incubation on ice for 20 min. The homogenate was centrifuged at 14,000×g for 30 min, and total RNA was precipitated by isopropanol. 1.0 jig total RNA was reverse transcribed for 2 hours at 37° C. in a 20μl mixture containing 50 mM Tris-HCl pH 8.3, 75 mM KCl, 3.0 mM MgCl2, 10 mM DTT, 2.5 μM random hexamer, 1.0 mM each dNTP, 20 U RNasin, and 200 U Superscript II reverse transcriptase. The level of expression of each target gene was quantified using a BioRad iCycler real-time PCR system (BioRad, Hercules, CA). Reactions were carried out in triplicate. Each 30 μl reaction mixture consisted of 1.5 μl of the cDNA and 18 mM Tris-HCl pH 8.3, 55 mM KCl, 2.0 mM MgCl2, 0.2 mM of each dNTP, 0.5μM of each primer, 10 nM fluorescein, 1:75,000 dilution of Sybr green I, and 2 U AmpliTaq DNA polymerase. […] The resultant data was analyzed using the iCycler iQ Real-Time Detection System software^33.
To assess the ability of SUL to induce AQP4 expression, rats were intraperitonealy injected with either 5 mg/kg SUL prepared in corn oil or equal volume of vehicle. […] AQP4 mRNA levels were evaluated using real-time PCR. […]

[3] = test system: endothelial barrier antigen (EBA); settings: 5 mg/kg and 20 mg/kg i.p. at 6 h after injury; samples at 24 h; cortices ipsilateral to injury; P<0.05 vs vehicle
Text: as §1
(§2) Rats were killed and brains were removed quickly and dip-frozen in −80° C. isopentane for 20 sec.

[4] = test system: rat endothelial cell antigen (RECA); settings: 5 mg/kg and 20 mg/kg i.p. at 6 h after injury; samples at 24 h; cortices ipsilateral to injury; P<0.05 vs vehicle
Text: as §1, §2

[5] = test system: von-Willebrand factor (vWF); settings: administration six hours after injury; vs injury+vehicle
Text: as §1, §2

aquaporin-4 (AQP4) = test system: aquaporin-4 (AQP4)
Text: as §1, §2

[6] = test system: glial fibrilary acidic protein (GFAP); settings: 24 hr after injury; vehicle vs SUL-treated animals
Text: as §1, §2

[7] = test system: tight junction proteins (claudin-5, occludin, ZO-1); settings: administration six hours after injury; P<0.05 vs injury+vehicle
Text: as §1, §2

brain injured rats [8] = settings: 5 mg/kg i.p. 6 hr post-injury, P<0.05 vs vehicle
Text: as §1, with “All rats were allowed to completely recover from the anesthesia after the surgery in a warm chamber before being sent back to the home cages. The type of brain trauma employed in this study produces both motor and cognitive deficits similar to those seen in human patients^6.” left out

Question: With C=CCN=C=S [allyl isothiocyanate] as the molecule, how does the “blood-brain barrier permeability (Evans Blue extravasation)” value (“blood-brain barrier permeability” below) (blood-brain barrier; 2.8 mg/kg i.p. 6 hr after brain trauma) read?
Answer: decreased blood-brain barrier permeability

Question: Which “blood-brain barrier permeability” value (blood-brain barrier; 4.6 mg/kg i.p. 6 hr after brain trauma) does the source give for S=C=NCCc1ccccc1 [phenylethyl isothiocyanate] here?
Answer: decreased blood-brain barrier permeability

Question: For C[S@@+]([O-])CCCCN=C=S [sulforaphane], which “spatial learning and memory (latency to find the hidden platform)” value (brain injured rats [1]; 5 mg/kg 6 hr post-injury, days 14-18 post-injury, n=9, P<0.05 vs vehicle) is on record?
Answer: improved spatial learning and memory

Question: And the “working memory: latency to hidden platform, match trial vs location trial” value (brain injured rats [1]; 5mg/kg i.p. 6 hr post-injury, tested day 21 post-injury, n=8, P<0.05)?
Answer: find the hidden platform significantly faster during the match trial

Question: What about the “difference in brain water content between injured and uninjured hemispheres” value (brain swelling (edema); 5 mg/kg ip at 15 min and at 6 hr after injury, measured at 3 day following injury) of the same molecule?
Answer: significantly decreases the difference in brain water content

Question: What about the “brain water content (difference in percent water content between injured and uninjured hemispheres)” value (brain swelling (edema); 5 mg/kg ip at 15 min and at 6 hr following injury, measured 24 hr following injury) of the same molecule?
Answer: decreases brain water content

Question: What about the “increase in brain water content (difference between injured and uninjured hemispheres)” value (brain swelling (edema); delayed administration, 5 mg/kg ip at 6 hr after injury, measured at 3 days after injury) of the same molecule?
Answer: significantly reduces the increase in brain water content

Question: What about the total infarct volume [2] of the same molecule?
Answer: 100.52±16.35 mm^3

Question: What about the “blood-brain barrier permeability” value (blood-brain barrier; 5 mg/kg i.p. 6 hr after brain trauma) of the same molecule?
Answer: decreased blood-brain barrier permeability

Question: And the “Evan's blue dye extravasation into brain tissue (OD at 610 nm)” value (blood-brain barrier; 5 mg/kg i.p. at 6 h after TBI, 24 hr and 72 hr time points, ipsilateral side, P<0.05 vs vehicle)?
Answer: significantly attenuate dye extravasation

Question: And the “extravasation of Evan's Blue dye” value (blood-brain barrier; oral 60 mg/kg/day for one or four days, day one given 6 hr following brain injury, P<0.05 vs vehicle)?
Answer: effective in decreasing the extravasation of Evan's Blue dye

Question: And the “neuroprotection of cortical cultures” value (cortical cultures)?
Answer: robust neuroprotection

Question: What about the “AQP4 mRNA level” value (AQP4 mRNA) of the same molecule?
Answer: 289.76±16.52%

Question: What about the “EBA staining, integrated fluorescent intensity” value [3] of the same molecule?
Answer: significantly improves

Question: What about the “RECA staining, integrated fluorescent intensity” value [4] of the same molecule?
Answer: significantly improves

Question: And the “vWF levels (immunoreactivity)” value [5]?
Answer: partially restored

Question: What about the “AQP4 immuno-fluorescence intensity in the injury core” value (aquaporin-4 (AQP4); 5 mg/kg i.p. at 6 hr after injury, 24 hr after injury, mean±S.E.M., n=4, injury-vehicle 13.79±2.22%, P<0.05) of the same molecule?
Answer: 35.25±3.13%

Question: And the “AQP4 levels (fluorescence intensity) in the penumbra region” value (aquaporin-4 (AQP4); post-injury administration, at both 24 hr and 3 days following injury, P<0.05 vs vehicle)?
Answer: significantly increased

Question: And the “GFAP immunoreactivity in the penumbra region” value [6]?
Answer: lack of difference

Question: What about the “tight junction protein levels (claudin-5, occludin, ZO-1 immunoreactivity)” value [7] of the same molecule?
Answer: significantly attenuated the loss

Question: And the “extinction of fear memory (freezing during extinction training)” value (brain injured rats [8]; extinction on day 23 post-injury, n=8)?
Answer: Extinction was more rapid

Question: And the “memory for the extinction event (freezing to the tone)” value (brain injured rats [8]; tested 48 hr following extinction training, 3 tone presentations)?
Answer: reduced freezing to the tone
